Experimental data reported in ChEMBL document CHEMBL3352214, “Studies on indolizines. Evaluation of their biological properties as microtubule-interacting agents and as melanoma targeting compounds” (Eur J Med Chem, 2015).

Tests used:
[1] = Growth inhibition of human COLO205 cells after 48 hrs by SRB assay; format: functional; details: COLO 205, 48 h
[2] = test system: NCI-H522; experiment: Growth inhibition of human NCI-H522 cells after 48 hrs by SRB assay; format: functional; details: NCI-H522, 48 h
[3] = test system: HT-29; experiment: Growth inhibition of human HT-29 cells after 48 hrs by SRB assay; format: functional; details: HT-29, 48 h
[4] = test system: Malme-3M; experiment: Growth inhibition of human MALME-3M cells at 10^-5 M after 48 hrs by SRB assay; format: functional; details: read-out: GI
[5] = Growth inhibition of human SF295 cells at 10^-5 M after 48 hrs by SRB assay; format: functional; details: SF-295, 48 h, read-out: GI
[6] = test system: MDA-MB-435; experiment: Growth inhibition of human MDA-MB-435 cells after 48 hrs by SRB assay; format: functional; details: MDA-MB-435, 48 h
[7] = test system: KM12; experiment: Growth inhibition of human KM12 cells after 48 hrs by SRB assay; format: functional; details: KM12, 48 h
[8] = test system: MCF7; experiment: Growth inhibition of human MCF7 cells at 10^-5 M after 48 hrs by SRB assay; format: functional; details: MCF7, 48 h, read-out: GI
[9] = Growth inhibition of human HCT116 cells at 10^-5 M after 48 hrs by SRB assay; format: functional; details: HCT-116, 48 h, read-out: GI
[10] = test system: A498; experiment: Growth inhibition of human A498 cells after 48 hrs by SRB assay; format: functional; details: A498, 48 h
[11] = test system: MDA-MB-468; experiment: Growth inhibition of human MDA-MB-468 cells after 48 hrs by SRB assay; format: functional; details: MDA-MB-468, 48 h
[12] = Growth inhibition of human PC3 cells at 10^-5 M after 48 hrs by SRB assay; format: functional; details: PC-3, 48 h, read-out: GI
[13] = Growth inhibition of human MOLT4 cells at 10^-5 M after 48 hrs by SRB assay; format: functional; details: MOLT-4, 48 h, read-out: GI
[14] = test system: SNB-75; experiment: Growth inhibition of human SNB75 cells after 48 hrs by SRB assay; format: functional; details: SNB-75, 48 h
[15] = Growth inhibition of human HOP92 cells at 10^-5 M after 48 hrs by SRB assay; format: functional; details: HOP-92, 48 h, read-out: GI
[16] = test system: HL-60(TB); experiment: Growth inhibition of human HL-60(TB) cells at 10^-5 M after 48 hrs by SRB assay; format: functional; details: HL-60, 48 h, read-out: GI
[17] = test system: MCF7; experiment: Growth inhibition of human MCF7 cells after 48 hrs by SRB assay; format: functional; details: MCF7, 48 h
[18] = Growth inhibition of human OVCAR3 cells after 48 hrs by SRB assay; format: functional; details: OVCAR-3, 48 h
[19] = test system: NCI-H522; experiment: Cytotoxicity against human NCI-H522 cells assessed as cell growth at 10^-5 M after 48 hrs by SRB assay; format: functional; details: NCI-H522, 48 h, read-out: Activity
[20] = Growth inhibition of human EKVX cells at 10^-5 M after 48 hrs by SRB assay; format: functional; details: read-out: GI
[21] = Cytotoxicity against human HCT116 cells assessed as cell growth at 10^-5 M after 48 hrs by SRB assay; format: functional; details: HCT-116, 48 h, read-out: Activity
[22] = test system: MDA-MB-435; experiment: Growth inhibition of human MDA-MB-435 cells at 10^-5 M after 48 hrs by SRB assay; format: functional; details: MDA-MB-435, 48 h, read-out: GI
[23] = Inhibition of sheep brain tubulin polymerization by fluorescence assay; set-up: species or system Ovis aries
[24] = test system: HL-60(TB); experiment: Growth inhibition of human HL-60(TB) cells after 48 hrs by SRB assay; format: functional; details: HL-60, 48 h
[25] = test system: CAKI-1; experiment: Growth inhibition of human Caki1 cells at 10^-5 M after 48 hrs by SRB assay; format: functional; details: CAKI-1, 48 h, read-out: GI
[26] = organism: Ovis aries; experiment: Inhibition of sheep brain tubulin polymerization at 100 uM by fluorescence assay
[27] = Growth inhibition of human PC3 cells after 48 hrs by SRB assay; format: functional; details: PC-3, 48 h
[28] = test system: SNB-75; experiment: Growth inhibition of human SNB75 cells at 10^-5 M after 48 hrs by SRB assay; format: functional; details: SNB-75, 48 h, read-out: GI
[29] = test system: NCI-H522; experiment: Growth inhibition of human NCI-H522 cells at 10^-5 M after 48 hrs by SRB assay; format: functional; details: NCI-H522, 48 h, read-out: GI
[30] = test system: MDA-MB-435; experiment: Cytotoxicity against human MDA-MB-435 cells assessed as cell growth at 10^-5 M after 48 hrs by SRB assay; format: functional; details: MDA-MB-435, 48 h, read-out: Activity
[31] = test system: SR; experiment: Growth inhibition of human SR cells after 48 hrs by SRB assay; format: functional
[32] = test system: NCI/ADR-RES; experiment: Growth inhibition of human NCI/ADR-RES cells after 48 hrs by SRB assay; format: functional
[33] = test system: SK-MEL-5; experiment: Growth inhibition of human SK-MEL-5 cells after 48 hrs by SRB assay; format: functional; details: SK-MEL-5, 48 h
[34] = test system: T47D; experiment: Growth inhibition of human T47D cells at 10^-5 M after 48 hrs by SRB assay; format: functional; set-up: Activity: scale not given: the % may be the effect or the level left
[35] = test system: A498; experiment: Growth inhibition of human A498 cells at 10^-5 M after 48 hrs by SRB assay; format: functional; details: A498, 48 h, read-out: GI
[36] = test system: MOLT-4; experiment: Cytotoxicity against human MOLT4 cells assessed as cell growth at 10^-5 M after 48 hrs by SRB assay; format: functional; details: MOLT-4, 48 h, read-out: Activity
[37] = Growth inhibition of human HCT15 cells at 10^-5 M after 48 hrs by SRB assay; format: functional; details: HCT-15, 48 h, read-out: GI
[38] = target: Tubulin; experiment: Inhibition of tubulin (unknown origin) polymerization; format: protein-complex assay, Homo sapiens

`CCOC(=O)c1cc(C(=O)c2cc(OC)c(OC)c(OC)c2)n2ccc(C)cc12` gave a GI50 [1] of 0.65 µM, a GI50 [2] of 0.585 µM and a GI50 [3] of 0.393 µM. The inhibition of growth at 10 µM [4] was 74%, the inhibition of growth at 10 µM [5] was 85% and the GI50 [6] was 0.234 µM. For the same molecule, the GI50 [7] was 0.497 µM, the inhibition of growth at 10 µM [8] was 88% and the inhibition of growth at 10 µM [9] was 100%. The GI50 [10] was 0.272 µM, the GI50 [11] was 0.41 µM and the inhibition of growth at 10 µM [12] was 79%. The inhibition of growth at 10 µM [13] was 50%, the GI50 [14] was 0.324 µM and the inhibition of growth at 10 µM [15] was 88%. The inhibition of growth at 10 µM [16] was 92%, the GI50 [17] was 0.339 µM and the GI50 [18] was 0.343 µM. The growth at 10 µM [19] was -9%, the inhibition of growth at 10 µM [20] was 50% and the growth at 10 µM [21] was -58%. For the same molecule, the inhibition of growth at 10 µM [22] was 100%, the IC50 [23] was 28.1 µM and the GI50 [24] was 0.63 µM. It also gave an inhibition of growth at 10 µM [25] of 66%, an inhibition [26] of 72% and a GI50 [27] of 0.976 µM. It also gave an inhibition of growth at 10 µM [28] of 82%, an inhibition of growth at 10 µM [29] of 100% and a growth at 10 µM [30] of -17%. It also gave a GI50 [31] of 0.31 µM, a GI50 [32] of 0.411 µM and a GI50 [33] of 0.411 µM. It also gave an Activity [34] of 83%.
`CCOC(=O)c1cc(C(=O)c2ccc(OC)c(OC)c2)n2ccc(OC)cc12` showed an inhibition of growth at 10 µM [4] of 12%, an inhibition of growth at 10 µM [5] of 3% and an inhibition of growth at 10 µM [8] of 8%. For the same molecule, the inhibition of growth at 10 µM [9] was 2%, the inhibition of growth at 10 µM [12] was 12% and the inhibition of growth at 10 µM [13] was 100%. The inhibition of growth at 10 µM [20] was 0%, the inhibition of growth at 10 µM [35] was 15% and the inhibition of growth at 10 µM [22] was 2%. It also gave an inhibition of growth at 10 µM [25] of 3%, an inhibition [26] of 51% and an inhibition of growth at 10 µM [28] of 0%. For the same molecule, the inhibition of growth at 10 µM [29] was 0%, the growth at 10 µM [36] was -53% and the inhibition of growth at 10 µM [37] was 7%. The inhibition of growth at 10 µM ([34]; Homo sapiens, T47D, 48 h, read-out: GI) was 4%.
For `COc1ccc(C(=O)c2cc(OC)c(OC)c(OC)c2)cc1O` [PHENSTATIN], the IC50 [38] was 3.4 µM, the IC50 [23] was 3.43 µM and the inhibition [26] was 99%.
